From US20240018140A1, “MODIFIED IMIDAZOPYRIDINES AS GLUCOSYLCERAMIDE SYNTHASE INHIBITORS” (Merck Sharp & Dohme LLC, priority 2020, published 2024)

Molecular target: glucosylceramide synthase (GCS) (Homo sapiens (Human), UniProt Q16739)
Test: UDP-Glo glucosylceramide synthase biochemical assay
Conditions: endogenous GCS in Golgi preparations from human A375 malignant melanoma skin cells; C6 ceramide and UDP-glucose substrates; 20 h incubation; UDP detected by luminescence
Text: UDP-Glo™ Glucosylceramide Synthase Biochemical Assay
A UDP-Glo™ glucosylceramide synthase biochemical assay was utilized to evaluate the effect of test compounds on the activity of endogenous levels of GCS enzyme contained within Golgi preparations isolated from human A375 malignant melanoma skin cells. The UDP-Glo™ glucosylceramide synthase assay uses UDP-Glucose as a nucleotide-glycosyl donor and ceramide as substrate acceptor molecules. In the reaction, glucosylceramide synthase (GCS) transfers glucose from UDP-Glucose to ceramide. Glucosylceramide and UDP are released as products.
Using Promega's UDP-Glo™ Glycosyltransferase assay kit (Promega Corporation, Madison, WI, USA (Promega)), GCS activity was indirectly measured by detecting the amount of UDP produced. An aliquot of GCS enzyme (1.5 μg crude golgi preparation, total protein) and titrated test compound were aliquoted to each well and incubated for 30 minutes at room temperature. […] An equivalent volume of substrate mixture was then added to each well. Following a 20 h incubation at room temperature to allow for GCS turnover of substrate, an equal volume of UDP detection reagent (Promega) was added to each well and incubated for an additional 75 minutes at room temperature to simultaneously convert the accumulated UDP product into ATP and generate light in a luciferase reaction. The generated light was detected using a luminometer. […] luminescence values (RLUs) were normalized to mean “min” and “max” effects, as determined on each plate. “Min” was defined as the mean of the values of the wells treated with vehicle (DMSO) and which represent 0% inhibition; “max” was defined as the mean of the values of the wells treated with a reference inhibitor and which represent the 100% effect. Values for % Emax and EC50 were determined by best-fitting the normalized data to a curve in Activity Base along a four-parameter logistic nonlinear regression (4PL) model (based on the Levenberg-Marquardt algorithm and defined by the equation below): […]
where: n is 4PMin (bottom of the curve); m is 4PMax (top of the curve); i is IP (inflection point of curve); and p is slope. See Levenberg, K., “A Method for the Solution of Certain Problems in Least Squares”, Quart. Appl. Math. 2, (1944), pp 164-168 and Marquardt, D., “An Algorithm for Least Squares Estimation on Nonlinear Parameters”, SIAM J. Appl. Math. 11, (1963) pp 431-441.

Chain of glucosylceramide synthase (GCS) (Q16739 whole entry): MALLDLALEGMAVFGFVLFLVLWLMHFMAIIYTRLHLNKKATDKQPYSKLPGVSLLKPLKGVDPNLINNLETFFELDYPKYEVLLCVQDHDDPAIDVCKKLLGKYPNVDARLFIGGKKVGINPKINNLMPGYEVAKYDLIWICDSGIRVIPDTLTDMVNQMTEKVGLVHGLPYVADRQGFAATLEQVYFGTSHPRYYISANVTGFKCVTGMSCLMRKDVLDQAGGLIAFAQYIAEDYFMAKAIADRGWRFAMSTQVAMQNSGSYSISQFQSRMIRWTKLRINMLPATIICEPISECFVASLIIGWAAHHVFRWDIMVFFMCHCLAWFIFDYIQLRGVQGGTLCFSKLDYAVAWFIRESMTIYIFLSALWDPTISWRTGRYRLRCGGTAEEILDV

EC50 [nM] | SMILES
7.4 | O=C(NC1CCCC1)c1cn2cc(F)cc(-c3ccccc3OCC(F)(F)F)c2n1 [Compound 28, N-cyclopentyl-6-fluoro-8-(2-(2,2,2-trifluoroethoxy)phenyl)imidazo[1,2-a]pyridine-2-carboxamide]
2.1 | O=C(N[C@H]1CC[C@H](CO)CC1)c1cn2cccc(-c3ccccc3OCC(F)(F)F)c2n1 [Compound 29, N-(trans-4-(hydroxymethyl)cyclohexyl)-8-(2-(2,2,2-trifluoroethoxy)phenyl)imidazo[1,2-a]pyridine-2-carboxamide]
5.6 | COc1ccc(Cl)cc1-c1cccn2cc(C(=O)NC34CCC(O)(CC3)C4)nc12 [Compound 30, 8-(5-chloro-2-methoxyphenyl)-N-(4-hydroxybicyclo[2.2.1]heptan-1-yl)imidazo[1,2-a]pyridine-2-carboxamide]
47 | O=C(N[C@H]1CC[C@H](O)CC1)c1nc2c(-c3ccccc3OCC(F)(F)F)cccn2c1F [Compound 32, 3-fluoro-N-(trans-4-hydroxycyclohexyl)-8-(2-(2,2,2-trifluoroethoxy)phenyl)imidazo[1,2-a]pyridine-2-carboxamide]
14 | CC(C)(NC(=O)c1nc2c(-c3ccccc3OCC(F)(F)F)cccn2c1F)C(F)(F)F [Compound 33, 3-fluoro-N-(1,1,1-trifluoro-2-methylpropan-2-yl)-8-(2-(2,2,2-trifluoroethoxy)phenyl)imidazo[1,2-a]pyridine-2-carboxamide]
5.9 | N#C[C@@]1(NC(=O)c2cn3cccc(-c4ccccc4OCC(F)(F)F)c3n2)CCOC1 [Compound 34, (S)-N-(3-cyanotetrahydrofuran-3-yl)-8-(2-(2,2,2-trifluoroethoxy)phenyl)imidazo[1,2-a]pyridine-2-carboxamide]

Continued, compound first:

SMILES | EC50 [nM]
CC(C)(CO)NC(=O)c1cn2cc(Cl)cc(-c3ccccc3OCC(F)(F)F)c2n1 [Compound 20, 6-chloro-N-(1-hydroxy-2-methylpropan-2-yl)-8-(2-(2,2,2-trifluoroethoxy)phenyl)imidazo[1,2-a]pyridine-2-carboxamide] | 0.86
O=C(NC1(CO)CCCC1)c1cn2cccc(-c3ccccc3OCC(F)(F)F)c2n1 [Compound 21, N-(1-(hydroxymethyl)cyclopentyl)-8-(2-(2,2,2-trifluoroethoxy)phenyl)imidazo[1,2-a]pyridine-2-carboxamide] | 11
NC(CNC(=O)c1cn2cc(Cl)cc(-c3ccccc3OCC(F)(F)F)c2n1)C(F)(F)F (stereo not shown) [Compound 23, N-(2-amino-3,3,3-trifluoropropyl)-6-chloro-8-(2-(2,2,2-trifluoroethoxy)phenyl)imidazo[1,2-a]pyridine-2-carboxamide] | 10
O=C(N[C@H]1CC[C@H](O)CC1)c1cn2cc(Cl)cc(-c3ccccc3OCC(F)(F)F)c2n1 [Compound 24, 6-chloro-N-(trans-4-hydroxycyclohexyl)-8-(2-(2,2,2-trifluoroethoxy)phenyl)imidazo[1,2-a]pyridine-2-carboxamide] | 0.36
O=C(NC12CCC(O)(CC1)C2)c1cn2cc(Cl)cc(-c3ccccc3OCC(F)(F)F)c2n1 [Compound 25, 6-chloro-N-(4-hydroxybicyclo[2.2.1]heptan-1-yl)-8-(2-(2,2,2-trifluoroethoxy)phenyl)imidazo[1,2-a]pyridine-2-carboxamide] | 2.5
CC1(O)CCC(NC(=O)c2cn3cc(F)cc(-c4ccccc4OCC(F)(F)F)c3n2)CC1 (stereo not drawn) [Compound 26, cis or trans-6-fluoro-N-(4-hydroxy-4-methylcyclohexyl)-8-(2-(2,2,2-trifluoroethoxy)phenyl)imidazo[1,2-a]pyridine-2-carboxamide] | 0.79
O=C(N[C@H]1CC[C@@H](CO)CC1)c1cn2cc(F)cc(-c3ccccc3OCC(F)(F)F)c2n1 [Compound 27, 6-fluoro-N-(cis-4-(hydroxymethyl)cyclohexyl)-8-(2-(2,2,2-trifluoroethoxy)phenyl)imidazo[1,2-a]pyridine-2-carboxamide] | 1.3
